Earlier results on one compound are cited in patent US20090026122A1, “BIOCOMPATIBLE SOLID-PHASE MICROEXTRACTION COATINGS AND METHODS FOR THEIR PREPARATION” (Janusz, priority 2002, published 2009).

The data set concerns plasma proteins. The conditions noted are these: previously published values.

As for `CN(C)C(=O)C(CCN1CCC(O)(c2ccc(Cl)cc2)CC1)(c1ccccc1)c1ccccc1` [Loperamide, loperamide], the “Plasma Protein Binding % Literature Values (range)” value is 95-97%.
